Values quoted from earlier work in patent US20080171795A1, “Novel Inter and Intra Multilamellar Vesicular Composition” (LIFE-CARE INNOVATIONS PVT. LTD., priority 2005, published 2008).
Where two headings read alike, the source gives them in different places.

Assays:
[1] = topical, skin with impaired stratum corneum barrier
psoriasis = conditions: compared with dithranol

Row | Time to penetrate into the skin [1] [min] | Solubility (in alcohol, ether, glacial acetic acid) | Solubility (in water) | Solubility (in water, listed as dithranol) | SMILES | Solubility (in acetone) | Solubility (in dilute solution of alkali hydroxides) | Solubility (in methylene chloride, chloroform) | Efficacy (psoriasis) | Irritancy and staining (psoriasis)
1 | 30 | slightly soluble | Practically insoluble | insoluble in water | O=C1c2c(O)cccc2Cc2cccc(O)c21 [Dithranol, 1,8-dihydroxyanthrone] | alcohol, ether, glacial acetic acid, sparingly | chloroform. dissolves in dilute solution of alkali | soluble in acetone, soluble in methylene chloride, |  | 
2 |  |  |  |  | CCCC(=O)C1c2cccc(O)c2C(=O)c2c(O)cccc21 [butantrone, 10-butyryldithranol] |  |  |  | compromised | reduced irritancy and staining
3 |  |  |  |  | CC(=O)Oc1cccc2cc3cccc(OC(C)=O)c3c(OC(C)=O)c12 [triacetyldithranol] |  |  |  | compromised | reduced irritancy and staining
